According to patent EP4039094A1, “NOVEL ANTIFUNGAL COMPOUNDS” (Max-Planck-Gesellschaft zur Förderung der Wissenschaften …, priority 2021, dated 2022):
Like-named read-outs stand apart in the source and are kept apart here.

Target: T1, Stp1/Stp4/Stp3 subcomplex (Mycosarcoma maydis, UniProt A0A0D1C5E3+A0A0D1CU07+A0A0D1EAN2)
T1 sequence (A0A0D1CU07 29-515): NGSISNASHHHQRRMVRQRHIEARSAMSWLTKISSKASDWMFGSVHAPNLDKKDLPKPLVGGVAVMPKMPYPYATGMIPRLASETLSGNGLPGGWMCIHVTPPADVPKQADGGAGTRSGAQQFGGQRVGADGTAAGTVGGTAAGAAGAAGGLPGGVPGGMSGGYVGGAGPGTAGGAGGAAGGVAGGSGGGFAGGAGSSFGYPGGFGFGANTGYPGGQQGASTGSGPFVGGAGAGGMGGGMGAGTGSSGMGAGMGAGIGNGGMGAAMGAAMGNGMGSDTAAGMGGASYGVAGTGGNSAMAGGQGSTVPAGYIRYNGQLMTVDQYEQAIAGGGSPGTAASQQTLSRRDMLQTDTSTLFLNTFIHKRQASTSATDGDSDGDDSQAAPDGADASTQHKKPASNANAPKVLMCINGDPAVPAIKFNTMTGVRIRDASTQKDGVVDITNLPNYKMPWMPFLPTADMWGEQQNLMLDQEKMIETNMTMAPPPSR
T1 sequence (A0A0D1C5E3 24-129): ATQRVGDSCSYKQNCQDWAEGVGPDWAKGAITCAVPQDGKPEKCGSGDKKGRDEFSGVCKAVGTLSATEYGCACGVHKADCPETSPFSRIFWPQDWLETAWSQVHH
T1 sequence (A0A0D1EAN2 25-327): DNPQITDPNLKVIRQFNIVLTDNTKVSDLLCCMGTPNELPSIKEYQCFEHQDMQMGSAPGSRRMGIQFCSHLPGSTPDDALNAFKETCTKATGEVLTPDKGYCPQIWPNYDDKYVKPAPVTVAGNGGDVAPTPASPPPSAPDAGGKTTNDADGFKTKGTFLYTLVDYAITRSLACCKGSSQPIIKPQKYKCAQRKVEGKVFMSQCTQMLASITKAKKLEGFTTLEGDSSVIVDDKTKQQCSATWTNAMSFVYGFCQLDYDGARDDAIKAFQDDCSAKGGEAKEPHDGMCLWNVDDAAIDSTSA
Test: Alamar Blue viability assay in S. cerevisiae 2-hybrid strain NL73 (viability depends on Stp complex formation)
Format: cell-based, U. maydis
From the text: To develop a screening platform based on Stp complex formation, a Saccharomyces cerevisiae 2-hybrid system was used. […] After co-transformation, reporter gene transcription is activated only if the two fusion proteins interact in the yeast nucleus. Moreover, the S. cerevisiae strain AH109 harbours the reporter genes ADE2 and HIS3, which encode for two enzymes that are crucial for adenine (Ade) and histidine (His) biosynthesis and thereby enable nutritional selection as a read-out for the interaction between proteins. In the following experiments, growth on high-stringency synthetic defined (SD) medium (SD -Leu -Trp -Ade -His) was used to identify if the complex members interact between them causing expression of ADE2 and HIS3. Additionally, strains were also grown on low-stringency medium (SD -Leu -Trp) to confirm their viability. […] All experiments were done with three independent transformants to exclude false positives due to spontaneous mutations.
The S. cerevisiae strain AH109 from Clontech (Saint-Germain-en-Laye, France) is auxotrophic for tryptophan, leucine, adenine and histidine. In addition, lacz is under control of the MEL1 UAS to be used as readout for quantitative β-galactosidase assays.
The resulting test strain NL73 (AD-Stp4/BD-Stp1/myc-Stp3) expresses the Stp1/Stp4/Stp3 subcomplex. NL73 carries the following three plasmids: pGBKT7-stp1: pGBKT7 vector expressing proteins fused to the GAL4 DNA binding domain (DNA-BD). pGBKT7 also contains the T7 promoter, a c-Myc epitope tag, and a MCS. The vector carries a Kanamycin resistance gene (Kanr) for selection in E. coli and the TRP1 nutritional marker for selection in yeast. pGAD-stp4: pGADT7 vector expressing proteins fused to a GAL4 activation domain (AD). The GAL4 AD fusion contains an N-terminal nuclear localization signal that targets the protein to the yeast nucleus, and a HA Tag, located between the GAL4 AD and the protein of interest. The vector carries an ampicillin resistance gene (Ampr) for selection in E. coli and a LEU2 nutritional marker for selection in yeast. pYEA-stp3-myc: pYEA vector expressing proteins under the control of the phosphoglycerate kinase promoter. The vector carries an ampicillin resistance gene (Ampr) for selection in E. coli and an ADE2 nutritional marker for selection in yeast. As control strain, NL70 containing empty vectors was generated (AH109Δabc9 pGAD::LEU2 pGBK::TRP1 pYEA::ADE2).
After that, 25 µl of NL73 cell suspension were dispensed into the assay plates using Multidrop Combi (Thermofisher Scientific) giving a final screening concentration of 10 µM. One column of the assay plate was filled with 25 µl of NL70 control strain cell suspension as negative control. Plates were sealed with Breathe-Easy sealing membrane (Sigma, Z380059), lidded and incubated in a humid chamber over night at 30°C and 140 rpm in an HT Multitron Pro (Infors). […] For the viability assay, the alamar Blue HS Cell Viability reagent (Invitrogen, #A50101) was pre-diluted using an equal amount of dVE-H2O and 5 µl of diluted Alamar Blue were added to the screening plates using Multidrop Combi. The plates were sealed again and incubated for 4 h at room temperature, unlidded. […] Screening data was normalized to DMSO-treated NL73 cells (that received DMSO in the same concentration as in samples where compounds dissolved in DMSO were added) being 100% and DMSO-treated NL70 cells representing 0% viability and analyzed with Quattro Software Suite (Quattro Research GmbH).

[1] = Alamar Blue assay, Table 8, read-out: IC50
[2] = inhibitory activity on NL73 viability, Table 6, read-out: IC50

| SMILES | IC50 (Alamar Blue assay, Table 8) | IC50 [1] [µM] | IC50 [2] [µM] |
| --- | --- | --- | --- |
| O=S(=O)(Nc1cnc2[nH]ncc2c1)c1cc(F)ccc1F [Ref2-B, reference compound] | inactive |  |  |
| Cn1ncc2cc(NS(=O)(=O)c3cc(F)ccc3F)cnc21 [Compound 4-B] |  | 10.2 |  |
| CCCn1c2c(c(SCc3ccccc3F)nc1=O)CCC2 [Compound 3-C] |  |  | 6.4 |
| CC(C)n1ncc2cc(NS(C)(=O)=O)cnc21 [Ref1-B, reference compound] | inactive |  |  |
| O=S(=O)(Nc1cnc2c(cnn2C2CCCCC2)c1)c1cc(F)ccc1F [Compound 3-B] |  | 2.2 |  |
| CCn1c2c(c(SCc3cccc(C)c3)nc1=O)CCC2 [Compound 2-C] |  |  | 6.2 |
